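1) Cells in 96-well plates. 2) Compound, 48 h, 5 concentrations. 3) Linear interpolation between surrounding doses. 4) Unreached endpoint = highest concentration. The concentration for 50% growth inhibition is given as GI50.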 Calls of active or inactive are those of the source. Cut-off read from the data, not from the text of the source: active = GI50 up to about 1.1 µM and inactive = higher.
Columns and labels:
Assay in all cases: DTP human tumour cell line panel, 48 h
[1] = test system: 786-0
[2] = test system: A549
[3] = test system: ACHN
[4] = test system: CCRF-CEM
[5] = test system: COLO 205
[6] = test system: DMS-114
[7] = test system: DMS-273
[8] = test system: EKVX
[9] = test system: HCC 2998
[10] = test system: HCT-116
[11] = test system: HCT-15
[12] = test system: HL-60
[13] = test system: HOP-62
[14] = test system: HT-29
[15] = test system: IGROV-1
[16] = test system: K562
[17] = test system: KM-20L2
[18] = test system: KM12
[19] = test system: LOX IMVI
[20] = test system: LXFL 529
[21] = test system: M14
[22] = test system: M19-MEL
[23] = test system: MOLT-4
[24] = test system: Malme-3M
[25] = test system: NCI-H226
[26] = test system: NCI-H23
[27] = test system: NCI-H460
[28] = test system: NCI-H522
[29] = test system: OVCAR-3
[30] = test system: OVCAR-8
[31] = test system: RPMI-8226
[32] = test system: SF-268
[33] = test system: SF-295
[34] = test system: SF-539
[35] = test system: SK-MEL-28
[36] = test system: SK-MEL-5
[37] = test system: SK-OV-3
[38] = test system: SN12C
[39] = test system: SNB-19
[40] = test system: SR
[41] = test system: SW-620
[42] = test system: TK-10
[43] = test system: U-251
[44] = test system: UACC-257
[45] = test system: XF498
[46] = test system: A498
[47] = test system: CAKI-1
[48] = test system: DLD-1
[49] = test system: HOP-18
[50] = test system: HOP-92
[51] = test system: MCF7
[52] = test system: NCI/ADR-RES
[53] = test system: OVCAR-4
[54] = test system: OVCAR-5
[55] = test system: RXF 393
[56] = test system: SK-MEL-2
[57] = test system: SNB-75
[58] = test system: SNB-78
[59] = test system: UACC-62
[60] = test system: UO-31

`Oc1ccccc1/C=N/c1ccccc1/N=C/c1ccccc1O` was tested, and the GI50 [1] was > 100 µM (inactive), the GI50 [2] was > 100 µM (inactive) and the GI50 [3] was 30.2 µM (inactive). For the same molecule, the GI50 [4] was 8.3 µM (inactive), the GI50 [5] was > 100 µM (inactive) and the GI50 [6] was 8.89 µM (inactive). The GI50 [7] was 85.9 µM (inactive), the GI50 [8] was > 100 µM (inactive) and the GI50 [9] was > 100 µM (inactive). The GI50 [10] was > 100 µM (inactive), the GI50 [11] was 79.4 µM and the GI50 [12] was 15 µM (inactive). The GI50 [13] was > 100 µM (inactive), the GI50 [14] was > 100 µM (inactive) and the GI50 [15] was > 100 µM (inactive). The GI50 [16] was 21.5 µM (inactive), the GI50 [17] was > 100 µM (inactive) and the GI50 [18] was > 100 µM (inactive). The GI50 [19] was > 100 µM (inactive), the GI50 [20] was 31.7 µM (inactive) and the GI50 [21] was > 100 µM (inactive). The GI50 [22] was > 100 µM (inactive), the GI50 [23] was 16.1 µM (inactive) and the GI50 [24] was > 100 µM (inactive). The GI50 [25] was 65.6 µM (inactive), the GI50 [26] was 38.3 µM (inactive) and the GI50 [27] was 62.8 µM (inactive). For the same molecule, the GI50 [28] was 16.7 µM (inactive), the GI50 [29] was 36.6 µM (inactive) and the GI50 [30] was > 100 µM (inactive). For the same molecule, the GI50 [31] was 62.7 µM (inactive), the GI50 [32] was 88.1 µM (inactive) and the GI50 [33] was 88.9 µM (inactive). For the same molecule, the GI50 [34] was 71.3 µM (inactive), the GI50 [35] was > 100 µM (inactive) and the GI50 [36] was 86.1 µM (inactive). The GI50 [37] was > 100 µM (inactive), the GI50 [38] was > 100 µM (inactive) and the GI50 [39] was 34.4 µM (inactive). The GI50 [40] was 19.5 µM (inactive), the GI50 [41] was > 100 µM (inactive) and the GI50 [42] was > 100 µM (inactive). For the same molecule, the GI50 [43] was 30.9 µM (inactive), the GI50 [44] was 38.7 µM (inactive) and the GI50 [45] was 47.6 µM (inactive).

`O=CNc1cccc2c3c([nH]c12)CCCCCC3` was tested, and the GI50 [46] was 76.6 µM (inactive), the GI50 [2] was > 100 µM (inactive) and the GI50 [47] was 33 µM (inactive). For the same molecule, the GI50 [4] was > 77.8 µM (inactive), the GI50 [5] was > 100 µM (inactive) and the GI50 [48] was > 100 µM (inactive). For the same molecule, the GI50 [6] was > 81.5 µM (inactive), the GI50 [7] was > 100 µM (inactive) and the GI50 [8] was > 100 µM (inactive). For the same molecule, the GI50 [9] was > 100 µM (inactive), the GI50 [10] was > 100 µM (inactive) and the GI50 [11] was over 100 µM. For the same molecule, the GI50 [12] was > 100 µM (inactive), the GI50 [49] was > 100 µM (inactive) and the GI50 [13] was > 100 µM (inactive). The GI50 [50] was 48 µM (inactive), the GI50 [14] was > 69.3 µM (inactive) and the GI50 [15] was 83.2 µM (inactive). The GI50 [16] was 67.9 µM (inactive), the GI50 [17] was > 100 µM (inactive) and the GI50 [18] was > 100 µM (inactive). The GI50 [19] was > 100 µM (inactive), the GI50 [22] was > 100 µM (inactive) and the GI50 [51] was > 100 µM (inactive). The GI50 [23] was 66.1 µM (inactive), the GI50 [24] was > 85.5 µM (inactive) and the GI50 [25] was > 100 µM (inactive). The GI50 [26] was > 100 µM (inactive), the GI50 [27] was > 100 µM (inactive) and the GI50 [28] was > 67.1 µM (inactive). For the same molecule, the GI50 [52] was > 100 µM (inactive), the GI50 [29] was > 100 µM (inactive) and the GI50 [53] was > 100 µM (inactive). For the same molecule, the GI50 [54] was > 100 µM (inactive), the GI50 [30] was > 100 µM (inactive) and the GI50 [55] was > 75.7 µM (inactive). The GI50 [32] was > 100 µM (inactive), the GI50 [33] was > 62.4 µM (inactive) and the GI50 [34] was > 100 µM (inactive). The GI50 [35] was > 100 µM (inactive), the GI50 [56] was > 100 µM (inactive) and the GI50 [36] was 97.5 µM (inactive). The GI50 [37] was > 100 µM (inactive), the GI50 [38] was > 100 µM (inactive) and the GI50 [39] was > 100 µM (inactive). For the same molecule, the GI50 [57] was > 93.1 µM (inactive), the GI50 [58] was > 92 µM (inactive) and the GI50 [41] was > 100 µM (inactive). The GI50 [43] was > 100 µM (inactive), the GI50 [44] was > 87.3 µM (inactive) and the GI50 [59] was > 100 µM (inactive). For the same molecule, the GI50 [60] was > 82.4 µM (inactive) and the GI50 [45] was > 77.1 µM (inactive).
